Test results taken from patent US20250049894A1, “TREATMENT OF NUDT2 MUTATION” (UNIVERSITÉ DE GENÈVE, priority 2021, published 2025).

System: Ap4A-RNA
Assay: In vitro Ap4A-RNA decapping assay (cap-labelled RNA, thin-layer chromatography)
Type: biochemical
Conditions: recombinant protein 250 nM to 750 nM, 37° C., 30 min, TLC
Method: Briefly, using the Ap4A mixture (ATP and Ap4A) or Ap4A instead of ATP for in vitro transcription by MEGAshortscript™ T7 Transcription Kit (Life technologies; Cat. No. AM1354), we produced a 50 nt RNA. Template is the same as making 50 nt RNA for MEFs transfection. Note that if the mixture is used, this nucleotide mixture (ATP and Ap4A) still has all the components (lysine, inorganic pyrophosphatase etc) added during the Ap4A synthesis. In vitro transcription reaction was carried out at 37° C. for at least 4 h in a 20 μL reaction containing 6 pmol DNA template, 2 μL 10× reaction buffer, 2 μL of nucleotides (75 mM CTP, 75 mM UTP, 75 mM GTP), 2 μL of ATP/Ap4A mixture that we produced above, and 2 μL T7 enzyme mix (MEGAshortscript™ Kit, Life technologies, Cat. No. AM1354). After that, 1 μL TURBO DNase was added and incubated at 37° C. for 15 min to remove the DNA template. Unincorporated nucleotides were removed from the RNA preparation by Microspin G-25 Column (GE Healthcare, Cat. No. 27-5325-01), and the process was repeated twice. The radioactively labelled RNA was separated by 10% urea gel. […]
Decapping reaction products were resolved by PEI-cellulose TLC plates (Merk, Cat. No. 1057250001) and developed in 0.45 M (NH4)2SO4 in a glass chamber at room temperature. […] When required, signals were quantified by ImageQuantTL.

## DCP2 (NUDT20): recombinant untagged mouse DCP2 catalytic core domain (95-260 aa)
  Ap4A-RNA decapping activity: only NUDT2 has Ap4A-RNA decapping activity
